Experimental data reported in patent publication US20180078602A1, “METHODS AND COMPOSITIONS FOR EXTENDING THE EFFICACY OF PHOSPHODIESTERASE INHIBITORS FOR TREATING ERECTILE DYSFUNCTION, AND COMPOSITIONS FOR INHIBITING THE ONSET AND SLOWING THE PROGRESSION OF ERECTILE DYSFUNCTION” (K.L.R.M., LLC, priority 2015, published 2018).

Key:
[1] = tested on: rat corpora cavernosa smooth muscle/collagen; test: Masson trichrome staining, smooth muscle/collagen ratio by quantitative image analysis; type: in vivo; settings: daily oral treatment 2 months; compared to 12 month-old control animals
Protocol: (§1) Middle aged 10 month-old Fisher 344 rats (Harlan Sprague-Dawley, San Diego, Calif.) were divided in 4 groups and treated daily for two months as follows: • a) Control: 12 month-old at the time of death receiving by retrolingual administration vehicle only composed of 10% dimethyl sulfoxide, peanut butter and water (12 month); • b) Composition 4 (COMP 4): a combination of Muira Puama (45 mg/Kg B.W), Paullinia cupana (45 mg/Kg B.W), ginger (45 mg/Kg B.W) and […]) dissolved in vehicle; • c) Tadalafil (TAD): 2.5 mg/Kg B.W tadalafil dissolved in vehicle; • d) Composition 4+Tadalafil (COMP4+TAD): A combination of b and c at the same doses. Histochemistry and Immunohistochemistry. […] Quantitative Image Analysis was performed by computerized densitometry using ImagePro 7.1 software (Media Cybernetics, Silver Spring, Md.), coupled to an Olympus BHS microscope equipped with a Retiga digital camera. For Masson staining, 40× magnification pictures of the penis comprising half of the corpora cavernosa were analyzed for smooth muscle (stained in red) and collagen areas (stained in blue) excluding the sinusoidal spaces, and expressed as the smooth muscle/collagen ratio. For desmin and iNOS staining, 200× magnification pictures of the corpora cavernosa were analyzed in a computerized grid and expressed as a percentage of positive area versus total area of the corpora cavernosa. […]

desmin = test: Desmin immunohistochemistry (smooth muscle cell content); type: in vivo, rat; settings: treatment 2 months; with respect to 12 month-old non-treated controls
Protocol: as §1

Compound: CN1CC(=O)N2[C@H](c3ccc4c(c3)OCO4)c3[nH]c4ccccc4c3C[C@@H]2C1=O [tadalafil]
- improvement of SMC/collagen ratio [1]: 60%
- increase in desmin expression (desmin): 38%
